Measured values from ChEMBL document CHEMBL5126512, “Current status of carbazole hybrids as anticancer agents” (Eur J Med Chem, 2022).

Tests used:
DU-145 [1] = assay: Antiproliferative activity against human DU-145 cells assessed as cell growth inhibition measured after 24 hrs by MTT assay; assay type: functional, cell-based; conditions: DU-145, 24 h
MDA-MB-231 [2] = assay: Antiproliferative activity against human MDA-MB-231 cells assessed as cell growth inhibition measured after 24 hrs by MTT assay; assay type: functional, cell-based; conditions: MDA-MB-231, 24 h
SK-OV-3 = assay: Antiproliferative activity against human SK-OV-3 cells assessed as cell growth inhibition measured after 24 hrs by MTT assay; assay type: functional, cell-based; conditions: SK-OV-3, 24 h
B16-F10 = assay: Antiproliferative activity against mouse B16-F10 cells assessed as cell growth inhibition measured after 24 hrs by MTT assay; assay type: functional, cell-based; conditions: B16-F10, 24 h
MDA-MB-231 [3] = assay: Antiproliferative activity against human MDA-MB-231 cells assessed as cell growth inhibition measured after 72 hrs by MTT assay; assay type: functional, cell-based; conditions: MDA-MB-231, 72 h
MCF7 [4] = assay: Antiproliferative activity against human MCF7 cells assessed as cell growth inhibition measured after 72 hrs by MTT assay; assay type: functional, cell-based; conditions: MCF7, 72 h
A549 [5] = assay: Anticancer activity against human A549 cells assessed as cell growth inhibition measured after 48 hrs by MTT assay; assay type: functional, cell-based; conditions: A549, 48 h
MCF7 [6] = assay: Anticancer activity against human MCF7 cells assessed as cell growth inhibition measured after 48 hrs by MTT assay; assay type: functional, cell-based; conditions: MCF7, 48 h
Jurkat = assay: Antiproliferative activity against human Jurkat cells assessed as cell growth inhibition measured after 48 hrs by MTT assay; assay type: functional, cell-based
HCT-116 = assay: Antiproliferative activity against human HCT-116 cells assessed as cell growth inhibition measured after 48 hrs by MTT assay; assay type: functional, cell-based; conditions: HCT-116, 48 h
HT-29 = assay: Antiproliferative activity against human HT-29 cells assessed as cell growth inhibition measured after 48 hrs by MTT assay; assay type: functional, cell-based; conditions: HT-29, 48 h
SW837 = assay: Antiproliferative activity against human SW837 cells assessed as cell growth inhibition measured after 48 hrs by MTT assay; assay type: functional, cell-based; conditions: SW837, 48 h
MDA-MB-231 [7] = assay: Antiproliferative activity against human MDA-MB-231 cells assessed as cell growth inhibition measured after 48 hrs by MTT assay; assay type: functional, cell-based; conditions: MDA-MB-231, 48 h
K562 = assay: Cytotoxicity activity against human K562 cells assessed as cell growth inhibition measured after 72 hrs by MTT assay; assay type: functional, cell-based; conditions: K562, 72 h
[8] = Cytotoxicity activity against African green monkey vero cells assessed as cell growth inhibition measured after 72 hrs by MTT assay; assay type: toxicity, cell-based, Chlorocebus sabaeus
[9] = Cytotoxicity activity against human PBMC cells assessed as cell growth inhibition measured after 72 hrs by MTT assay; assay type: toxicity, cell-based
ASPC1 = assay: Anticancer activity against human ASPC1 cells assessed as cell growth inhibition measured after 72 hrs by Cell-Titre Glo luminescent cell viability assay; assay type: functional, cell-based; conditions: ASPC1, 72 h
SW1990 = assay: Anticancer activity against human SW1990 cells assessed as cell growth inhibition measured after 72 hrs by Cell-Titre Glo luminescent cell viability assay; assay type: functional, cell-based; conditions: SW1990, 72 h
[10] = Cytotoxicity against human MRC5 cells assessed as cell growth inhibition measured after 72 by Cell-Titre Glo luminescent cell viability assay; assay type: toxicity, cell-based
[11] = Cytotoxicity against human ARPE-19 cells assessed as cell growth inhibition measured after 72 by Cell-Titre Glo luminescent cell viability assay; assay type: toxicity, cell-based
A498 = assay: Antiproliferative activity against human A498 cells assessed as cell growth inhibition measured after 72 hrs by SRB assay; assay type: functional, cell-based; conditions: A498, 72 h
A549 [12] = assay: Antiproliferative activity against human A549 cells assessed as cell growth inhibition measured after 72 hrs by SRB assay; assay type: functional, cell-based; conditions: A549, 72 h
[13] = Cytotoxicity against human NHDF cells assessed as cell growth inhibition measured after 72 hrs by SRB assay; assay type: toxicity, cell-based
SMMC-7721 = assay: Cytotoxicity against human SMMC-7721 cells assessed as cell growth inhibition measured after 48 hrs by MTT assay; assay type: functional, cell-based; conditions: SMMC-7721, 48 h
Hep 3B2 = assay: Cytotoxicity against human Hep3B cells assessed as cell growth inhibition measured after 48 hrs by MTT assay; assay type: functional, cell-based
HepG2 [14] = assay: Antitumor activity against human HepG2 xenografted in BALB/c nude mouse assessed as tumor growth inhibition at 50 mg/kg, iv administered every 2 days and measured upto 30 days relative to control; assay type: functional; conditions: read-out: TGI
PA-1 = assay: Antiproliferative activity against human PA-1 cells assessed as cell growth inhibition measured after 48 hrs by MTT assay; assay type: functional, cell-based; conditions: PA-1, 48 h
OVCAR-3 = assay: Antiproliferative activity against human OVCAR-3 cells assessed as cell growth inhibition measured after 48 hrs by MTT assay; assay type: functional, cell-based; conditions: OVCAR-3, 48 h
HepG2 [15] = assay: Antiproliferative activity against human HepG2 cells assessed as cell growth inhibition measured after 48 hrs by MTT assay; assay type: functional, cell-based; conditions: HepG2, 48 h
DU-145 [16] = assay: Antiproliferative activity against human DU-145 cells assessed as cell growth inhibition measured after 48 hrs by MTT assay; assay type: functional, cell-based; conditions: DU-145, 48 h
HeLa = assay: Antiproliferative activity against human HeLa cells assessed as cell growth inhibition measured after 48 hrs by MTT assay; assay type: functional, cell-based

Question: Which IC50 (DU-145 [1]) does the source give for CNC1=C([N+](=O)[O-])C(c2cc(OC)c(OC)c(OC)c2)c2ccc3[nH]c4ccccc4c3c2O1 (configuration not stated) here?
Answer: The IC50 was 5.1 µM.

Question: And the IC50 (MDA-MB-231 [2])?
Answer: Its IC50 is 5.1 µM.

Question: What about the IC50 (SK-OV-3) of the same molecule?
Answer: The IC50 was 5.1 µM.

Question: And the IC50 (B16-F10)?
Answer: The IC50 was 5.1 µM.

Question: Which results are given for C[N+](C)(C)CCN1CCN(CCCCCCn2c3ccccc3c3cc(Cl)ccc32)CC1?
Answer: IC50 (MDA-MB-231 [3]): 4.4 µM; IC50 (MCF7 [4]): 4.4 µM

Question: For O=C1c2[nH]c3ccc(Cl)cc3c2CC[C@@]12[C@@H](c1ccc(Cl)cc1)C1CSCN1C21c2ccccc2-c2nc3ccccc3nc21 (some centres not stated), which IC50 (A549 [5]) is on record?
Answer: Its IC50 is 20 µM.

Question: And the IC50 (MCF7 [6])?
Answer: The IC50 was 21 µM.

Question: Which IC50 (Jurkat) does the source give for O=C(Cn1c2ccccc2c2c3oc(=O)cc(COC(=O)CCCc4ccc(N(CCCl)CCCl)cc4)c3ccc21)NCCC[P+](c1ccccc1)(c1ccccc1)c1ccccc1 here?
Answer: Its IC50 is 20 µM.

Question: With Oc1cc2[nH]c3ccccc3c2cc1CN1CCCCC1 as the molecule, how does the IC50 (HCT-116) read?
Answer: The IC50 was 18 µM.

Question: And the IC50 (HT-29)?
Answer: The IC50 was 18 µM.

Question: What about the IC50 (SW837) of the same molecule?
Answer: Its IC50 is 16 µM.

Question: And the IC50 (MDA-MB-231 [7])?
Answer: Its IC50 is 16 µM.

Question: With Cc1c2ccncc2c(C)c2c1[nH]c1c(S(=O)(=O)O)cc(Br)cc12 as the molecule, how does the IC50 (K562) read?
Answer: Its IC50 is 35 µM.

Question: What about the IC50 at 72 h [8] of the same molecule?
Answer: The IC50 at 72 h was over 100 µM.

Question: What about the IC50 at 72 h [9] of the same molecule?
Answer: The IC50 at 72 h was over 100 µM.

Question: What does the source list for CCCCn1c2ccccc2c2cc(/C=N/NC(=O)c3ccncc3)ccc21?
Answer: IC50 (ASPC1): 3.42 µM; IC50 (SW1990): 22.4 µM; IC50 [10]: 64.8 µM; IC50 [11]: 65.6 µM

Question: What does the source list for Cc1c2ccncc2c(C(=O)NCCN(C)C)c2c3cc(CO)ccc3n(C)c12?
Answer: IC50 (A498): 0.78 µM; IC50 (A549 [12]): 0.65 µM; IC50 at 72 h [13]: 7.33 µM

Question: With COc1cccc2c1C(=O)c1c(O)c3c(c(O)c1C2=O)C[C@@](O)(C(=O)CO)C[C@@H]3O[C@H]1C[C@H](N)[C@H](O)[C@H](C)O1 [DOXORUBICIN] as the molecule, how does the IC50 (SMMC-7721) read?
Answer: The IC50 was 1.02 µM.

Question: What about the IC50 (Hep 3B2) of the same molecule?
Answer: Its IC50 is 1.02 µM.

Question: Which inhibition in vivo at 50 mg/kg (HepG2 [14]) does the source give for COc1ccc(/C=C\c2cc(OC)c(OC)c(OC)c2)cc1OP(=O)(O)O [FOSBRETABULIN] here?
Answer: Its inhibition in vivo at 50 mg/kg is 48.3%.

Question: What does the source list for COc1ccc2[nH]c3c4c(c(C)cc3c2c1)OC(C)(C)C=C4 [KOENIMBINE]?
Answer: IC50 (PA-1): 0.2 µM; IC50 (OVCAR-3): 0.2 µM; IC50 (HepG2 [15]): 0.2 µM; IC50 (DU-145 [16]): 0.2 µM; IC50 (HCT-116): 0.2 µM; IC50 (HeLa): 0.2 µM
